{
  "source": "patent US20200178542A9",
  "about": "“CONTROL OF PESTS IN COTTON BY G[…] BILOBALIDES” (priority 2015, published 2020)",
  "key": {"Euschistus heros": {"system": "Euschistus heros", "test": "Spray of cotton seedlings, infestation with adults of Euschistus heros, alive insects and Abbott relative efficacy (Example-2, Example-3)", "assay_type": "in vivo", "conditions": "for Relative Efficacy 1DAI / Relative Efficacy 3DAI: Abbott's formula; for No of alive insects 1DAI / No of alive insects 3DAI: ten adults per plant, mean of 4 replicates", "method": "Relative efficacy (E) values were calculated according to Abbot's formula\nC is the number of alive insects in untreated controls, and G is the number of alive insects in plants treated with components of the ginkgo tree.\nFibermax™ LibertyLink™ cotton, and Bollgard II™ cotton seedlings were sprayed with 2 ml of compositions comprising either no component of the ginkgo tree, or bilobalide at a concentration of 150 ppm, or 100 ppm. Plants were allowed to dry and subsequently infested with ten adults of Euschistus heros. Four replicate measurement on different plants were made for each measurement. One day after infestation (1 DAI), and three days after infestation (3 DAI) the number of live and dead insects was determined. The mean number of alive insects, as well as the relative efficacy values (E) according to Abbott's formula were gathered in Table E, wherein the number of alive insects in untreated controls (C) was the value of the same plant without the application of bilobalide.\nThe experiment as described in Example-2 was repeated with ginkgolide A in a concentration of 250 ppm. […] The mean number of alive insects, as well as the relative efficacy values (E) according to Abbott's formula were gathered in Table F, wherein the number of alive insects in untreated controls (C) was the value of the same plant without the application of ginkgolide A."}, "Nezara viridula": {"system": "Nezara viridula", "test": "Foliar spray of cotton plants, infestation with Nezara viridula, mortality after three days (Example-1)", "assay_type": "in vivo", "conditions": "for mortality at 100 ppm: Nezara viridula, foliar, 72 h", "method": "Cotton plants were grown to growth stage BBCH 12. The cotton plants were then sprayed with 300 l/ha of aqueous compositions comprising either no component of the ginkgo tree, 300 ppm of ginkgolide A, or 100 ppm of bilobalide. The plants were then infested with five insects (either adult, or 4th instar nymphs) of Nezara viridula insects. Insects were contained on the plant using mesh organza bags. Three replicate measurement on different plants were made for each measurement. Three days after infestation, the number of live and dead insects was determined. The mean mortality values were gathered in Table D."}, "[1]": {"conditions": "Fibermax LibertyLink cotton, 250 ppm"}, "[2]": {"conditions": "Fibermax LibertyLink cotton, 100 ppm"}, "[3]": {"conditions": "Fibermax LibertyLink cotton, 150 ppm"}},
  "note": "Read-outs that look alike come from different tables or passages of the source.",
  "data": [
    {"smiles": "C[C@@H]1C(=O)O[C@H]2C[C@@]34[C@H]5C[C@@H](C(C)(C)C)[C@]36[C@@H](OC(=O)[C@@H]6O)O[C@@]4(C(=O)O5)[C@]21O", "note": "[Ginkgolide A]", "values": [
      {"measurement": "Relative Efficacy 1DAI", "setting": "Euschistus heros; Bollgard II cotton, 250 ppm", "value": 5, "unit": "%"},
      {"measurement": "No of alive insects 1DAI", "setting": "Euschistus heros; Bollgard II cotton, 250 ppm", "value": 9.5},
      {"measurement": "Relative Efficacy 3DAI", "setting": "Euschistus heros; Bollgard II cotton, 250 ppm", "value": 33, "unit": "%"},
      {"measurement": "No of alive insects 3DAI", "setting": "Euschistus heros; Bollgard II cotton, 250 ppm", "value": 6.8},
      {"measurement": "Relative Efficacy 1DAI", "setting": "Euschistus heros; [1]", "value": 0, "unit": "%"},
      {"measurement": "No of alive insects 1DAI", "setting": "Euschistus heros; [1]", "value": 10.0},
      {"measurement": "Relative Efficacy 3DAI", "setting": "Euschistus heros; [1]", "value": 5, "unit": "%"},
      {"measurement": "No of alive insects 3DAI", "setting": "Euschistus heros; [1]", "value": 9.5},
      {"measurement": "Mortality of 4th instar nymphs", "setting": "Nezara viridula; N. viridula 4th instar nymphs on cotton (BBCH 12), 300 ppm, 300 l/ha spray, three days after infestation, mean of 3 replicates", "value": 78.6, "unit": "%"},
      {"measurement": "Mortality of Adults", "setting": "Nezara viridula; N. viridula adults on cotton (BBCH 12), 300 ppm, 300 l/ha spray, three days after infestation, mean of 3 replicates", "value": 93.3, "unit": "%"}
    ]},
    {"smiles": "CC(C)(C)[C@]1(O)C[C@@H]2OC(=O)C[C@@]23C(=O)O[C@@H]2OC(=O)[C@H](O)[C@]213", "note": "[Bilobalide, (3aS,5aR,8aS,9R,10aR)-9-tert-butyl-8,9-dihydroxydihydro-9H-furo[2,3-b]furo[3′,2′; 2,3]cyclopenta[1,2-c]furan-2,4,7(3H,8H)-trione]", "values": [
      {"measurement": "Relative Efficacy 1DAI", "setting": "Euschistus heros; Bollgard II cotton, 100 ppm", "value": 78, "unit": "%"},
      {"measurement": "No of alive insects 1DAI", "setting": "Euschistus heros; Bollgard II cotton, 100 ppm", "value": 2.3},
      {"measurement": "Relative Efficacy 3DAI", "setting": "Euschistus heros; Bollgard II cotton, 100 ppm", "value": 98, "unit": "%"},
      {"measurement": "No of alive insects 3DAI", "setting": "Euschistus heros; Bollgard II cotton, 100 ppm", "value": 0.3},
      {"measurement": "Relative Efficacy 1DAI", "setting": "Euschistus heros; Bollgard II cotton, 150 ppm", "value": 75, "unit": "%"},
      {"measurement": "No of alive insects 1DAI", "setting": "Euschistus heros; Bollgard II cotton, 150 ppm", "value": 2.5},
      {"measurement": "Relative Efficacy 3DAI", "setting": "Euschistus heros; Bollgard II cotton, 150 ppm", "value": 100, "unit": "%"},
      {"measurement": "No of alive insects 3DAI", "setting": "Euschistus heros; Bollgard II cotton, 150 ppm", "value": 0.0},
      {"measurement": "Relative Efficacy 1DAI", "setting": "Euschistus heros; [2]", "value": 68, "unit": "%"},
      {"measurement": "No of alive insects 1DAI", "setting": "Euschistus heros; [2]", "value": 3.3},
      {"measurement": "Relative Efficacy 3DAI", "setting": "Euschistus heros; [2]", "value": 98, "unit": "%"},
      {"measurement": "No of alive insects 3DAI", "setting": "Euschistus heros; [2]", "value": 0.3},
      {"measurement": "Relative Efficacy 1DAI", "setting": "Euschistus heros; [3]", "value": 70, "unit": "%"},
      {"measurement": "No of alive insects 1DAI", "setting": "Euschistus heros; [3]", "value": 3.0},
      {"measurement": "Relative Efficacy 3DAI", "setting": "Euschistus heros; [3]", "value": 100, "unit": "%"},
      {"measurement": "No of alive insects 3DAI", "setting": "Euschistus heros; [3]", "value": 0.0},
      {"measurement": "mortality at 100 ppm", "setting": "Nezara viridula; read-out: Mortality of 4th instar nymphs", "value": 92.9, "unit": "%"},
      {"measurement": "mortality at 100 ppm", "setting": "Nezara viridula; read-out: Mortality of Adults", "value": 53.3, "unit": "%"}
    ]}
  ]
}
